Like-named read-outs stand apart in the source and are kept apart here. Starred links: 1 amine or outer side, 2 acyl side, 3 side chain; linkers in the order of their positions; H or OH if unused. Positions of bridges follow the written chain, without caps; N, C: chain ends. Non-standard residues stand in square brackets, D forms with d. Residues, ends and D or L forms follow the SMILES beside them. *: point of attachment. pTerphenylCO(4''-OnC5H11) = CCCCCOc1ccc(-c2ccc(-c3ccc(C(=O)*)cc3)cc2)cc1; Orn(4R-OH,5R-OH) = O=C([C@H](C[C@@H](O)[C@@H](O)N[*:3])N[*:1])[*:2]; hTyr(3S-OH,4S-OH) = N[C@H](C(=O)O)[C@H](O)[C@@H](O)c1ccc(O)cc1; Pro(3S-OH,4S-Me) = C[C@H]1CN[C@H](C(=O)O)[C@H]1O; Hyp = O=C(O)[C@@H]1C[C@@H](O)CN1
Experiments:
[1] = Pooled population PK analysis of i.v. anidulafungin; type: in vivo, human; conditions: patients aged 1 month to < 2 years, n = 23, i.v. LD/MD 3.0/1.5 mg/kg q.d., weight-corrected, final PK model; for Vd: Vss
[2] = cited from earlier work
[3] = adult patients with serious fungal infections; cited from earlier work
[4] = cited from earlier work; remark: listed apart in the source
[5] = infant patients at high risk for invasive fungal infections
[6] = neonatal patients at high risk for invasive fungal infections

CCCCCOc1ccc(-c2ccc(-c3ccc(C(=O)N[C@H]4C[C@@H](O)[C@@H](O)NC(=O)[C@@H]5[C@@H](O)[C@@H](C)CN5C(=O)[C@H]([C@@H](C)O)NC(=O)[C@H]([C@H](O)[C@@H](O)c5ccc(O)cc5)NC(=O)[C@@H]5C[C@@H](O)CN5C(=O)[C@H]([C@@H](C)O)NC4=O)cc3)cc2)cc1 [anidulafungin] ({pTerphenylCO(4''-OnC5H11)}-[Orn(4R-OH,5R-OH)]T[Hyp][hTyr(3S-OH,4S-OH)]T[Pro(3S-OH,4S-Me)]; lactam 1-C)
clearance ([1]; human, plasma, iv, CL, Mean (SD), SD): 0.35 mL/min/kg | Vd ([1]; human, plasma, iv, Mean (SD), SD): 0.77 L/kg | Vd ([1]; human, plasma, iv, Median (range)): 0.75 L/kg | CL, Median (range) [1]: 0.021 (0.006–0.032) L/hour/kg | mean CL [2, 5]: 0.25 mL/min/kg | mean Vss [2, 5]: 0.9 L/kg | median AUCss [2, 5]: 97700 ng·h/mL | mean CL [2, 6]: 0.333 mL/min/kg | mean Vss [2, 6]: 1.7 L/kg | median AUCss [2, 6]: 74900 ng·h/mL | mean CL [3]: 1.0 L/h | chemical stability in blood ([4]; blood at physiologic temperature and pH): slow chemical degradation | hepatic metabolism [4]: not metabolized by the liver | renal CL ([4]; negligible renal clearance): < 1%
